Data published in patent US9303044B2, “7-(piperazin-1-yl)-5H-[1,3,4]thiadiazolo[3,2-A]pyrimidin-5-ones for the treatment of thrombotic disorders” (The Rockefeller University, priority 2012, dated 2016).

Test system: platelet aggregation
Experiment: ADP-induced platelet aggregation assay in citrated platelet-rich plasma
Assay type: cell-based
Conditions: Homo sapiens, initial slopes, read-out: IC50, inhibition of platelet aggregation
Procedure: The platelet aggregation assay may be conducted by modification of the assay as disclosed in Blue et al., Blood 2008, 111, 1248, the contents of which are incorporated by reference in their entirety. Citrated platelet-rich plasma (PRP), may be generated by the centrifugation of whole blood at 650 g for 4 minutes at 22° C., and may then be incubated in aggregometer cuvettes with Compounds of the Invention (final concentration of 100 μM, 30 μM, 10 μM, 1 μM, 0.30 μM, 0.1 μM, 0.03 μM and 0.01 μM) or controls for 15 minutes at 37° C. After 30 seconds in the aggregometer (Bio/Data PAP8; Horsham, Pa.) at 37° C. with stiffing, ADP (5-20 μM) may be added to induce aggregation and the light transmittance is measured for 8 minutes. The initial slopes of aggregation in the presence of different concentrations of the Compound tested may be used to generate an IC50.

SMILES: NCC(=O)Nc1cc(-c2nn3c(=O)cc(N4CCNCC4)nc3s2)ccn1 [Example 14-B, 2-amino-N-(4-(5-oxo-7-(piperazin-1-yl)-5H-[1,3,4]thiadiazolo[3,2-a]pyrimidin-2-yl)pyridin-2-yl)acetamide]
- IC50: 53.6 ± 15.5 nM

SMILES: NCC(=O)Nc1cncc(-c2nn3c(=O)cc(N4CCNCC4)nc3s2)c1 [Example 14-C, 2-Amino-N-(5-(5-oxo-7-(piperazin-1-yl)-5H-[1,3,4]thiadiazolo[3,2-a]pyrimidin-2-yl)pyridin-3-yl)acetamide]
- IC50: 62 ± 10 nM
